Assay results taken from PMC8625619, “Carbonic Anhydrase Inhibition with Sulfonamides Incorporating Pyrazole- and Pyridazinecarboxamide Moieties Provides Examples of Isoform-Selective Inhibitors” (Molecules, 2021).

Tests used:
[1] = biological target: hCA IX (Homo sapiens, UniProt Q16790); assay: stopped flow CO2 hydrase assay, hCA IX
Experimental: (§1) An Applied Photophysics stopped-flow instrument was used for assaying the CA-catalyzed CO2 hydration activity [50]. […] However, the background activity from the uncatalyzed reaction was always subtracted when IC50 values were obtained by using the data analysis software for the stopped-flow instrument. […] The uncatalyzed rates were determined in the same manner and subtracted from the total observed rates. Stock solutions of the inhibitor (0.1 mM) were prepared in distilled–deionized water, and dilutions up to 0.01 nM were performed thereafter with the assay buffer. Inhibitor and enzyme solutions were preincubated together for 15 min at room temperature prior to the assay, to allow for the formation of the E–I complex. The inhibition constants were obtained by nonlinear least-squares methods using PRISM 3 and the Cheng–Prusoff equation as reported earlier and represented the mean from at least three different determinations. All CA isoforms were recombinant proteins obtained in-house, as reported earlier [2, 51, 52].

[2] = biological target: hCA XII (Homo sapiens, UniProt O43570); assay: stopped flow CO2 hydrase assay, hCA XII
Experimental: as §1

[3] = biological target: hCA I (Homo sapiens, UniProt P00915); assay: stopped flow CO2 hydrase assay, hCA I
Chain of hCA I (P00915 whole entry): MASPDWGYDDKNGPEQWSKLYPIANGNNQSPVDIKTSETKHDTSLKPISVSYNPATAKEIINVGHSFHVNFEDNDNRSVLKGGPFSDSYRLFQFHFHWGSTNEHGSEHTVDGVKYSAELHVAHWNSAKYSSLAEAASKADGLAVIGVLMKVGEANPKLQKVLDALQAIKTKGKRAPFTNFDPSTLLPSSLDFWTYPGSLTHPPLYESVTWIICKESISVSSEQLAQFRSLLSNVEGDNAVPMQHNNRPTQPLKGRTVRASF
Experimental: as §1

[4] = biological target: hCA II (Homo sapiens, UniProt P00918); assay: stopped flow CO2 hydrase assay, hCA II
Experimental: as §1

Chain of hCA XII (O43570 25-354): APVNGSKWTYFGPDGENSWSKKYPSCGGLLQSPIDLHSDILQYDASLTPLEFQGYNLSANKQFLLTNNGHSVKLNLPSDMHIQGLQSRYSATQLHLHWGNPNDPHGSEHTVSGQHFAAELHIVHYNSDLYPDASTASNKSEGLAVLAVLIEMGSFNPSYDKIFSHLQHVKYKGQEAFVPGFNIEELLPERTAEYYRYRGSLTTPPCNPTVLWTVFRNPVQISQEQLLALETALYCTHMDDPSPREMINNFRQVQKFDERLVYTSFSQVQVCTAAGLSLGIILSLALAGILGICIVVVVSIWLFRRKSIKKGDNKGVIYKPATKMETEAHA

Row | SMILES | melting point | Ki [1] | Ki [2] | Ki [3] | Ki [4] | selectivity index on hCA IX compared to hCA I ([1]; hCA IX compared to hCA I) | selectivity index on hCA IX compared to hCA II ([1]; hCA IX compared to hCA II) | selectivity index (SI) for hCA II towards hCA I ([4]; hCA II compared to hCA I) | selectivity index (SI) for hCA II compared to hCA IX ([4]; hCA II compared to hCA IX)
1 | NS(=O)(=O)c1ccc(NC(=O)c2nn(-c3ccc(F)cc3)ccc2=O)cc1 [10b, N-[4-(Aminosulfonyl)phenyl]-1-(4-fluorophenyl)-4-oxo-1,4-dihydropyridazine-3-carboxamide] | 313 to 315 °C | 131 nM | 94.8 nM | 481 nM | 72.5 nM |  |  |  | 
2 | NS(=O)(=O)c1ccc(NC(=O)c2cc(-c3ccccc3O)[nH]n2)cc1 [4a, N-[4-(Aminosulfonyl)phenyl]-3-(2-hydroxyphenyl)-1H-pyrazole-5-carboxamide] |  | 450 nM | 271 nM | 3820 nM | 867 nM |  |  |  | 
3 | COc1cc2c(cc1OC)-c1c(c(C(=O)Nc3ccc(S(N)(=O)=O)cc3)nn1C)C2 [compound 15, N-[4-(Aminosulfonyl)phenyl]-6,7-dimethoxy-1-methyl-1,4-dihydroindeno[1,2-c]pyrazole-3-carboxamide] |  | 6.1 nM |  | 726 nM |  |  |  |  | 
4 | NS(=O)(=O)c1ccc(NC(=O)c2nn(-c3cccc(Cl)c3)ccc2=O)cc1 [10c, N-[4-(Aminosulfonyl)phenyl]-1-(3-chlorophenyl)-4-oxo-1,4-dihydropyridazine-3-carboxamide] | 297 to 299 °C | 569 nM | 433 nM | 840 nM | 76.3 nM |  |  |  | 
5 | Cc1cc(C)c(O)c(-c2cc(C(=O)NCCc3ccc(S(N)(=O)=O)cc3)[nH]n2)c1 [5e, N-{2-[4-(Aminosulfonyl)phenyl]ethyl}-3-(2-hydroxy-3,5-dimethylphenyl)-1H-pyrazole-5-carboxamide] |  | 52.3 nM | 191 nM | 71.4 nM | 16.2 nM |  |  |  | 
6 | NS(=O)(=O)c1ccc(NC(=O)c2cc(-c3cc(Cl)ccc3O)n[nH]2)cc1 [4f, N-[4-(Aminosulfonyl)phenyl]-3-(5-chloro-2-hydroxyphenyl)-1H-pyrazole-5-carboxamide] | 302 to 304 °C | 34.2 nM | 90.8 nM | 155 nM | 37.2 nM |  |  |  | 
7 | NS(=O)(=O)c1ccc(NC(=O)c2nn(-c3ccc(Cl)cc3)ccc2=O)cc1 [10d, N-[4-(Aminosulfonyl)phenyl]-1-(4-chlorophenyl)-4-oxo-1,4-dihydropyridazine-3-carboxamide] | 310 to 312 °C | 165 nM | 65.7 nM | 6.2 nM | 8 nM |  |  |  | 
8 | Cc1ccc(O)c(-c2cc(C(=O)Nc3ccc(S(N)(=O)=O)cc3)[nH]n2)c1 [4c, N-[4-(Aminosulfonyl)phenyl]-3-(2-hydroxy-5-methylphenyl)-1H-pyrazole-5-carboxamide] | 297 to 299 °C | 8.5 nM | 250 nM | 221 nM | 16.1 nM | 26 | two times |  | 
9 | Cc1cc(O)c(-c2cc(C(=O)NCCc3ccc(S(N)(=O)=O)cc3)[nH]n2)cc1C [5d, N-{2-[4-(Aminosulfonyl)phenyl]ethyl}-3-(2-hydroxy-4,5-dimethylphenyl)-1H-pyrazole-5-carboxamide] | 256 to 258 °C | 63.5 nM | 61.3 nM | 218 nM | 25.2 nM |  |  |  | 
10 | NS(=O)(=O)c1ccc(CCNC(=O)c2cc(-c3cc(Cl)ccc3O)n[nH]2)cc1 [5f, N-{2-[4-(Aminosulfonyl)phenyl]ethyl}-3-(5-chloro-2-hydroxyphenyl)-1H-pyrazole-5-carboxamide] |  | 79.4 nM | 77.3 nM | 2150 nM | 9.1 nM |  |  | 236 | 8.7
11 | NS(=O)(=O)c1ccc(CCNC(=O)c2cc(-c3ccccc3O)n[nH]2)cc1 [5a, N-{2-[4-(Aminosulfonyl)phenyl]ethyl}-3-(2-hydroxyphenyl)-1H-pyrazole-5-carboxamide] |  |  |  | 88.1 nM |  |  |  |  | 
12 | Cc1ccc(-c2cc(C(=O)NCCc3ccc(S(N)(=O)=O)cc3)[nH]n2)c(O)c1 [5b, N-{2-[4-(Aminosulfonyl)phenyl]ethyl}-3-(2-hydroxy-4-methylphenyl)-1H-pyrazole-5-carboxamide] | 254 to 255 °C | 16.1 nM | 330 nM | 345 nM | 16.2 nM |  |  |  | 
13 | Cc1ccc(-c2cc(C(=O)Nc3ccc(S(N)(=O)=O)cc3)[nH]n2)c(O)c1 [4b, N-[4-(Aminosulfonyl)phenyl]-3-(2-hydroxy-4-methylphenyl)-1H-pyrazole-5-carboxamide] |  | 78.9 nM | 372 nM | 93.3 nM | 309 nM |  |  |  | 
